Results as given in patent publication US10100008B2, “Immunostimulating agent” (AJINOMOTO CO., INC., priority 2014, dated 2018).

What was measured:
[1] = test system: anti OVA-specific IgG1 subclass antibody; experiment: Adjuvant activity test: anti OVA-specific IgG1 subclass antibody in serum after subcutaneous immunization with OVA; assay type: in vivo, BALB/c mice; details: dorsal-subcutaneous
Protocol: One week later, the secondary immunization was carried out by dorsal-subcutaneous administration of solutions similar to those of the above-mentioned (1) to (5) again. Two weeks from the secondary immunization, the whole blood and spleen were extracted under anesthesia, and the obtained serum sample was measured for anti OVA-specific IgG1 subclass antibody. A method for measurement of the anti OVA-specific IgG1 subclass antibody in Example 1, and the following Examples 2, 4, 7 to 10 and 13 to 16 is as follows.
To a 96 well plate was added 5 μg/ml OVA at 100 μl/well, and the mixture was incubated at 4° C. overnight. After incubation, the mixture was washed three times with 200 μl of PBS-T (PBS (phosphate buffered saline)+0.05% (v/v) Tween 20) per well, and blocked with 100 μl of 5% FCS (fatal calf serum)/PBS solution per well at room temperature for 1 to 2 hr. Thereafter, the mixture was washed three times with PBS-T (200 μl/well), a diluted serum sample (100 μl/well) or the same amount of 5% FCS/PBS solution as a control was added, and the mixture was incubated at 37° C. for 1 hr. Thereafter, the mixture was washed five times with PBS-T (200 μl/well), a diluted biotinylated anti-mouse IgG1 antibody (100 μl/well) was added, and the mixture was incubated at 37° C. for 45 min. Thereafter, the mixture was washed five times with PBS-T (200 μl/well), a diluted anti-biotin-HRP antibody was added (100 μl/well), and the mixture was incubated at 37° C. for another 30 min. Thereafter, the mixture was washed five times with PBS-T (200 μl/well), TMB substrate solution was added (100 μl/well), and the mixture was incubated at room temperature for 10 to 15 min. Thereafter, a reaction quenching liquid (2N sulfuric acid solution) was added (50 μl/well) to discontinue a color developing reaction, and the absorbance (OD Value=450 nm) was measured by a microplate reader.
One week later, the secondary immunization was carried out by dorsal-subcutaneous administration of solutions similar to those of the above-mentioned (1) to (6) again. Two weeks from the secondary immunization, the whole blood and spleen were extracted under anesthesia, and the obtained serum sample was measured for anti OVA-specific IgG1 subclass antibody.
8-Week-old female BALB/c mice were divided into groups (N=6), and each group was primarily immunized by dorsal-subcutaneous administration of (1) ovalbumin (OVA) ([…] administration group), (2) OVA (10 μg) and, as an adjuvant, N,N′-bis(2-heptylundecanoyl)-L-cystine dimethyl ester (SZ23) ([…]), (3) OVA (10 μg) and N,N′-bis(dodecanoyl)-L-cystine dimethyl ester (SZ24) ([…]), and (4) saline (saline single administration group), each per mouse. One week later, the secondary immunization was carried out by dorsal-subcutaneous administration of solutions similar to those of the above-mentioned (1) to (4) again. Two weeks from the secondary immunization, the whole blood was extracted under anesthesia, and the obtained serum sample was measured for anti OVA-specific IgG1 subclass antibody. SZ24 is disclosed in JP-A-4-230359, which is incorporated herein by reference in its entirety.
8-Week-old female BALB/c mice were divided into groups (N=6), and each group was primarily immunized by dorsal-subcutaneous administration of (1) ovalbumin (OVA) ([…] administration group), (2) OVA (10 μg) and, as an adjuvant, N,N′-bis(2-tetradecylhexadecanoyl)-L-cystine dimethyl ester (SZ37) (0.256 μmol) added to saline, (3) OVA (10 μg) and N,N′-bis(2-octadecyleicosanoyl)-L-cystine dimethyl ester (SZ38) (0.256 μmol) added to saline, (4) OVA (10 μg) and SZ37 (0.256 μmol) dissolved or dispersed in 5% αCD-added saline, and (5) OVA (10 μg) and SZ38 (0.256 μmol) dissolved or dispersed in 5% αCD-added saline, each per mouse. One week later, the secondary immunization was carried out by dorsal-subcutaneous administration of solutions or dispersions similar to those of the above-mentioned (1) to (5) again. […]

[2] = Dispersibility investigation test (turbidity, OD 650 nm; photograph); assay type: physicochemical; details: for dispersion in 5% αCD-added saline (photograph) / dispersion in saline (photograph): after stirring; for dispersion in saline (photograph): 0.256 μmol in 1 mL saline
Protocol: N,N′-bis(2-tetradecylhexadecanoyl)-L-cystine dimethyl ester (SZ37) and N,N′-bis(2-octadecyleicosanoyl)-L-cystine dimethyl ester (SZ38) (0.256 μmol) were each dispensed to a 2 mL tube containing zirconia beads, saline or 5% α-cyclodextrin (hereinafter to be also simply referred to as αCD)-added saline (1 mL) was added, and the mixture was stirred. The absorbance (OD Value=650 nm) was measured by a microplate reader, and the turbidity was calculated as an index of dispersibility. The measurement method of the turbidity is as follows.
SZ37 and SZ38 (0.256 μmol) were each dispensed to a 2 mL tube containing zirconia beads, saline or 5% αCD-added saline (1 mL) was added, and the mixture was vigorously stirred three times under conditions of 3.15 seconds one time at 6000 rpm. The mixture was dispensed by 200 μL to a 96 well plate, and the absorbance (OD Value=650 nm) was measured by a microplate reader. As a control, kaolinite (1 mg) was dissolved in distilled water (1 L), and the absorbance (OD Value=650 nm) was measured by a microplate reader. The absorbance thereof (OD Value=650 nm) was defined to be turbidity: 1, and the turbidity of each sample was calculated from the ratio with the measured value of kaolinite.
Whether the dispersion state varies depending on the dispersion solvent when SZ37 and SZ38 are dispersed was studied. In the same manner as in Example 10, SZ37 and SZ38 were added 1% β-cyclodextrin (hereinafter to be also referred to simply as βCD)-added saline or 5% αCD-added saline, and the mixture was stirred. The absorbance (OD Value=650 nm) was measured by a microplate reader, and the turbidity was calculated as an index of dispersibility. The measurement method of turbidity as in Example 11.

[3] = 2.56 μmol in saline with OVA 10 μg, primary + secondary immunization, serum two weeks after, compared to OVA single administration group
[4] = 0.256 μmol dispersed in 5% αCD-added saline with OVA 10 μg, compared to control (OVA in 5% αCD-added saline)
[5] = 0.256 μmol dispersed in 5% αCD-added saline with OVA 10 μg, compared to OVA single administration group (OVA in saline)
[6] = 0.256 μmol in saline with OVA 10 μg, compared to OVA single administration group
[7] = 0.256 μmol in 1 mL 5% αCD-added saline
[8] = 0.256 μmol in 1 mL 5% αCD-added saline, compared to dispersion in saline
[9] = 5% αCD-added saline, compared to dispersion in 1% βCD-added saline

COC(=O)[C@H](CSSC[C@H](NC(=O)C(CCC(C)CC(C)(C)C)C(C)CC(C)(C)C)C(=O)OC)NC(=O)C(CCC(C)CC(C)(C)C)C(C)CC(C)(C)C (stereo partly drawn) [SZ23′, N,N′-bis[5,7,7-trimethyl-2-(1,3,3-trimethylbutyl)octanoyl]-L-cystine dimethyl ester]
production of anti OVA-specific IgG1 subclass antibody [1, 3]: significantly increased

CC(C)CCCCCCCCCCCCCCC(=O)O [ISA, isostearic acid, reference compound]
production of anti OVA-specific IgG1 subclass antibody ([1]; 5.12 μmol in saline with OVA 10 μg, compared to OVA single administration group): did not show a significant difference

CCCCC/C=C\C/C=C\CCCCCCCC(=O)N[C@@H](CSSC[C@H](NC(=O)CCCCCCC/C=C\C/C=C\CCCCC)C(=O)OC)C(=O)OC [SZ28, N,N′-bis(linoleoyl)-L-cystine dimethyl ester, reference compound]
production of anti OVA-specific IgG1 subclass antibody [1, 3]: did not increase significantly

CCCCCCCCCCCCCCCC(=O)N[C@@H](CSSC[C@H](NC(=O)CCCCCCCCCCCCCCC)C(=O)OC)C(=O)OC [SZ22, N,N′-bis(hexadecanoyl)-L-cystine dimethyl ester]
production of anti OVA-specific IgG1 subclass antibody [1, 4]: significantly increased
production of anti OVA-specific IgG1 subclass antibody [1, 3]: significantly increased

CCCCCCCCCCCC(=O)N[C@@H](CSSC[C@H](NC(=O)CCCCCCCCCCC)C(=O)OC)C(=O)OC [SZ24, N,N′-bis(dodecanoyl)-L-cystine dimethyl ester, reference compound]
production of anti OVA-specific IgG1 subclass antibody [1, 3]: did not show a significant difference

CCCCCCCCCCCCCCCCCCC(CCCCCCCCCCCCCCCCCC)C(=O)N[C@@H](CSSC[C@H](NC(=O)C(CCCCCCCCCCCCCCCCCC)CCCCCCCCCCCCCCCCCC)C(=O)OC)C(=O)OC [SZ38, N,N′-bis(2-octadecyleicosanoyl)-L-cystine dimethyl ester]
production of anti OVA-specific IgG1 subclass antibody [1, 5]: significantly increased
production of anti OVA-specific IgG1 subclass antibody [1, 6]: did not increase significantly
dispersion in 5% αCD-added saline (photograph) [2, 7]: could be uniformly dispersed
turbidity (index of dispersibility) [2, 8]: significantly higher
dispersion in saline (photograph) [2]: could not be dispersed
turbidity (index of dispersibility) [2, 9]: significantly higher

CCCCCCCCCCCCCCCCCCCCCCCCCCCCCC(=O)N[C@@H](CSSC[C@H](NC(=O)CCCCCCCCCCCCCCCCCCCCCCCCCCCCC)C(=O)OC)C(=O)OC [SZ36, N,N′-bis(triacontanoyl)-L-cystine dimethyl ester]
production of anti OVA-specific IgG1 subclass antibody [1, 4]: significantly increased
production of anti OVA-specific IgG1 subclass antibody [1, 3]: significantly increased

CCCCCCCCCCCCCCC(CCCCCCCCCCCCCC)C(=O)N[C@@H](CSSC[C@H](NC(=O)C(CCCCCCCCCCCCCC)CCCCCCCCCCCCCC)C(=O)OC)C(=O)OC [SZ37, N,N′-bis(2-tetradecylhexadecanoyl)-L-cystine dimethyl ester]
production of anti OVA-specific IgG1 subclass antibody [1, 5]: significantly increased
production of anti OVA-specific IgG1 subclass antibody [1, 6]: did not increase significantly
dispersion in 5% αCD-added saline (photograph) [2, 7]: could be uniformly dispersed
turbidity (index of dispersibility) [2, 8]: significantly higher
dispersion in saline (photograph) [2]: could not be dispersed
turbidity (index of dispersibility) [2, 9]: significantly higher

COC(=O)[C@@H](N)CSSC[C@H](N)C(=O)OC [(CyssOMe)2, cystine dimethyl ester, reference compound]
production of anti OVA-specific IgG1 subclass antibody [1, 3]: did not show a significant difference

CCCCCCCCCCCCCCCCCCCCCC(=O)N[C@@H](CSSC[C@H](NC(=O)CCCCCCCCCCCCCCCCCCCCC)C(=O)OC)C(=O)OC [SZ66, N,N′-bis(docosanoyl)-L-cystine dimethyl ester]
production of anti OVA-specific IgG1 subclass antibody [1, 4]: significantly increased

CCCCCCCCCCCCC(=O)N[C@@H](CSSC[C@H](NC(=O)CCCCCCCCCCCC)C(=O)OC)C(=O)OC [SZ34, N,N′-bis(tridecanoyl)-L-cystine dimethyl ester]
production of anti OVA-specific IgG1 subclass antibody [1, 4]: significantly increased
production of anti OVA-specific IgG1 subclass antibody [1, 3]: significantly increased
